A value given as a limit tells only on which side of the number the result lay.

In this test the target is Peptidyl-prolyl cis-trans isomerase A (Homo sapiens, UniProt P62937). Kind of test: Isothermal Titration Calorimetry (ITC). As for the experimental part: The buffer used in the titrations of the compounds belonging to the ester series was 50 mM phosphate buffer, pH 6.5 and the concentration of DMSO was 2% v/v for all the compounds, unless otherwise stated in Table 51. […] Control experiments were performed, where each compound was titrated into buffer and when small amount of heat was detected due to heat of dilution, it was subtracted when processing the data using a linear fit method. In all cases the first injection was omitted from the data processing. All data were analysed using the MicroCal PEAQ-ITC Analysis software.
(In general: ITC needs no label: the signal is the heat of the interaction.)

Chain of Peptidyl-prolyl cis-trans isomerase A (P62937 whole entry): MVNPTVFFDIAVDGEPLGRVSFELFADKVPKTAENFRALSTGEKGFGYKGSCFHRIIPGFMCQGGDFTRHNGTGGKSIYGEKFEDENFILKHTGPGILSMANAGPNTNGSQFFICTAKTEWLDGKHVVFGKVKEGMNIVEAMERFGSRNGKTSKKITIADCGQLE

The term Kd denotes a measure of binding affinity in units of concentration. Read a low Kd as tighter binding. Take `CCOC(=O)CNC(=O)N(Cc1ccc(N)cc1)Cc1cn(CC(=O)OCC)nn1` [US11802108, Compound 20]: the Kd was above 600 µM.

The values above are taken from BindingDB's records for patent US11802108 (The University Court of The University of Edinburgh, 2023).
